One experiment addresses T1, BACE1 (Homo sapiens, UniProt P56817).
T1 construct: endogenous in cells; host or cells: SH-SY5Y (ATCC CRL2266) stably expressing human APP695Wt
The experiment in a line: SH-SY5YAPP695Wt Whole Cell Assay. It is filed as cell-based. As to conditions: SH-SY5Y cells expressing human APP695Wt, 24 hours, conditioned media, mean ± standard deviation of the mean, n=3. Here is the method: (§1) To assess selectivity of BACE1 over BACE2, the test compound is evaluated in FRET assays using specific substrates for BACE1 and BACE2 as described below. For in vitro enzymatic and cellular assays, the test compound is prepared in DMSO to make up a 10 mM stock solution. The stock solution is serially diluted in DMSO to obtain a ten-point dilution curve with final compound concentrations ranging from 10 μM to 0.05 nM in a 96-well round-bottom plate before conducting the in vitro enzymatic and whole cell assays.
The routine whole cell assay for the measurement of inhibition of BACE1 activity utilizes the human neuroblastoma cell line SH-SY5Y (ATCC Accession No. CRL2266) stably expressing a human APP695Wt cDNA. Cells are routinely used up to passage number 6 and then discarded.
SH-SY5YAPP695Wt cells are plated in 96 well tissue culture plates at 5.0×10^4 cells/well in 200 μL culture media (50% MEM/EBSS and Ham's F12, 1× each sodium pyruvate, non-essential amino acids and NaHCO3 containing 10% FBS). The following day, media is removed from the cells, fresh media added then incubated at 37° C. for 24 hours in the presenceabsence of test compound at the desired concentration range.
At the end of the incubation, conditioned media are analyzed for evidence of beta-secretase activity by analysis of Abeta peptides 1-40 and 1-42 by specific sandwich ELISAs. […]

The next experiment concerns the target T2, human BACE2 (1-460):Fc (Homo sapiens, UniProt Q9Y5Z0).
T2 construct: made in house; host or cells: HEK293 (transient transfection, purified from conditioned media by Protein A)
T2 sequence (Q9Y5Z0 21-460): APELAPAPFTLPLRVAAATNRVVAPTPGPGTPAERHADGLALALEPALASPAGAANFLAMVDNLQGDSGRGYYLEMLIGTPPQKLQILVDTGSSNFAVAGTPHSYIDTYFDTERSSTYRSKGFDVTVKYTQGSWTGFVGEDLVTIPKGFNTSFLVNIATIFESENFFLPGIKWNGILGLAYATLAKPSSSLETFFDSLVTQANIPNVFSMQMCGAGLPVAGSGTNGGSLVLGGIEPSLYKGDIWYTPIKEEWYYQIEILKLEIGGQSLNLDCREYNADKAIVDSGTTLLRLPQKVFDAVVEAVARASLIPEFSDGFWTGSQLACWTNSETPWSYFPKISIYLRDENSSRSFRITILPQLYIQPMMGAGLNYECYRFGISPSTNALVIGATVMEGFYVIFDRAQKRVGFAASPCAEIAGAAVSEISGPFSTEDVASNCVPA
The experiment in a line: BACE2 TMEM27 FRET Assay. It is filed as biochemical. On the procedure: as §1
(§2) Human BACE1 (accession number: AF190725) and human BACE2 (accession number: AF 204944) are cloned from total brain cDNA by RT-PCR. The nucleotide sequences corresponding to amino acid sequences #1 to 460 are inserted into the cDNA encoding human IgG1 (Fc) polypeptide (Vassar et al., Science, 286, 735-742 (1999)). […]
(§3) Conditioned media of HEK293 cells transiently transfected with huBACE1:Fc or huBACE2:Fc cDNA are collected. […] The purity of the final product is assessed by electrophoresis in 4-20% Tris-Glycine SDS-PAGE. […]
Serial dilutions of test compound are prepared as described above. […] The RFU of the mixture at time 0 is recorded at excitation wavelength 430 nm and emission wavelength 535 nm. […] The RFU at the end of incubation is recorded with the same excitation and emission settings used at time 0. […]

The target of another experiment is T3, Human BACE1(1-460):Fc (Homo sapiens, UniProt P56817).
T3 construct: made in house; host or cells: HEK293 (transient transfection, purified from conditioned media by Protein A)
T3 sequence (P56817 22-460): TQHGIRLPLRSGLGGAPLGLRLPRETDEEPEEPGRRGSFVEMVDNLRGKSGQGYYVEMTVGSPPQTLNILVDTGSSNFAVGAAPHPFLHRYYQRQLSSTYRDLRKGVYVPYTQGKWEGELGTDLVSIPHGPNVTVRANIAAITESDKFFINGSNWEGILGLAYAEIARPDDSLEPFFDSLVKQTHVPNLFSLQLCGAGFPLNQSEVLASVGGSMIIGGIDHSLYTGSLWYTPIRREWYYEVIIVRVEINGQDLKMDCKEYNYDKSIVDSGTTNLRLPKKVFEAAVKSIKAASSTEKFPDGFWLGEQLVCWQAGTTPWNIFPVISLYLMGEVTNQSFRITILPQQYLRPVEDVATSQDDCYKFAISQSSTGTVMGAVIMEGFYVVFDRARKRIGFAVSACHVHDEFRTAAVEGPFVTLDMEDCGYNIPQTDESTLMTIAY
Nature of the experiment: BACE1 FRET Assay. The following applies: purified recombinant huBACE1:Fc, pH 4.6, mean ± standard deviation of the mean, n=13. It is filed as biochemical. On the procedure: as §1, §2, §3
Serial dilutions of the test compound are prepared as described above. […] The RFU of the mixture at time 0 is recorded at excitation wavelength 355 nm and emission wavelength 460 nm, after brief mixing on a plate shaker. […] The RFU at the end of incubation is recorded with the same excitation and emission settings used at time 0. […]

SMILES strings stand for the structures. Read-outs that look alike come from different tables or passages of the source.

T1 sequence (P56817 46-501): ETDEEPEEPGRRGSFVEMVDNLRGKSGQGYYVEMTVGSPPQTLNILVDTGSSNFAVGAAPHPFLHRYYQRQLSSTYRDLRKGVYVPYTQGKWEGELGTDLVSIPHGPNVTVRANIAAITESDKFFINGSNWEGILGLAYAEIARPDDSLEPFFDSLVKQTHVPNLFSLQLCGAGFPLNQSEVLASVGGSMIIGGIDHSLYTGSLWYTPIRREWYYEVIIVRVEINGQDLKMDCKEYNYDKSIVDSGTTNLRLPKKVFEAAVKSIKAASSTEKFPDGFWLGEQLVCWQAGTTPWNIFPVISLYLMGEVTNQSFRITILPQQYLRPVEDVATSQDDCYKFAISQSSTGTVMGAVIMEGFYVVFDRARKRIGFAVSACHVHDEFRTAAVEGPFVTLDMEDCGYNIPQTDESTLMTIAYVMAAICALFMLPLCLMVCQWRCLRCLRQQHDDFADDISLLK

A word on the IC50: it is the concentration at which inhibition is half-maximal. Take `C[C@@]1(c2cc(NC(=O)c3nc4ccc(C#N)nc4s3)ccc2F)CO[C@@](C)(C(F)(F)F)C(N)=N1` [Example 1, N-[3-[(3R,6R)-5-Amino-3,6-dimethyl-6-(trifluoromethyl)-2H-1,4-oxazin-3-yl]-4-fluoro-phenyl]-5-cyano-thiazolo[5,4-b]pyridine-2-carboxamide]: the IC50 at BACE1 (read-out: IC50 for SH-SY5YAPP695Wt A-beta (1-40) ELISA) came to 1.88 nM; on BACE1 (read-out: IC50 for SH-SY5YAPP695Wt A-beta (1-42) ELISA), 3.55 nM; against human BACE2 (1-460):Fc (TMEM27 LucY FRET assay, huBACE2:Fc, pH 4.6, mean ± standard deviation of the mean, n=6) it was 446 nM; on Human BACE1(1-460):Fc, 8.18 nM. For the same molecule, the “ratio of BACE1 (FRET IC50 enzyme assay) to BACE2 (TMEM27 LucY FRET assay)” value on human BACE2 (1-460):Fc (selectivity for BACE1 over BACE2) is “approximately 50 fold”.
